Measured values as given in ChEMBL document CHEMBL3997780, “Facile synthesis and antiproliferative activity of 7H-benzo[7,8]chromeno[2,3-d]pyrimidin-8-amines” (Eur J Med Chem, 2017).
The source made the active and inactive calls. The rule behind the calls is not given here.

Assays:
HeLa = assay: Cytotoxicity against human HeLa cells assessed as decrease in cell viability by MTT assay; assay type: functional, cell-based
MOLT-4 [1] = assay: Cytotoxicity against human MOLT4 cells assessed as decrease in cell viability by MTT assay; assay type: functional, cell-based
A549 [2] = assay: Induction of apoptosis in human A549 cells assessed as necrotic cells at IC50 after 24 hrs by annexin V-FITC/propidium iodide staining-based flow cytometric method relative to control; assay type: functional
MOLT-4 [3] = assay: Induction of apoptosis in human MOLT4 cells assessed as change in cell morphology at IC50 after 24 hrs by acridine orange/ethidium bromide staining-based fluorescence microscopic method; assay type: functional
A549 [4] = assay: Induction of apoptosis in human A549 cells assessed as late apoptotic cells at IC50 after 24 hrs by annexin V-FITC/propidium iodide staining-based flow cytometric method (reference value: 0.06%); assay type: functional
A549 [5] = assay: Cytotoxicity against human A549 cells assessed as decrease in cell viability by MTT assay; assay type: functional, cell-based
A549 [6] = assay: Induction of apoptosis in human A549 cells assessed as early apoptotic cells at IC50 after 24 hrs by annexin V-FITC/propidium iodide staining-based flow cytometric method (reference value: 0.93%); assay type: functional
A549 [7] = assay: Induction of apoptosis in human A549 cells assessed as change in cell morphology at IC50 after 24 hrs by acridine orange/ethidium bromide staining-based fluorescence microscopic method; assay type: functional
A549 [8] = assay: Induction of apoptosis in human A549 cells assessed as viable cells at IC50 after 24 hrs by annexin V-FITC/propidium iodide staining-based flow cytometric method (reference value: 99.01%); assay type: functional
MOLT-4 [9] = assay: Induction of apoptosis in human MOLT4 cells assessed as early apoptotic cells at IC50 after 24 hrs by annexin V-FITC/propidium iodide staining-based flow cytometric method (reference value: 2.18%); assay type: functional
MOLT-4 [10] = assay: Induction of apoptosis in human MOLT4 cells assessed as late apoptotic cells at IC50 after 24 hrs by annexin V-FITC/propidium iodide staining-based flow cytometric method (reference value: 0.02%); assay type: functional
MOLT-4 [11] = assay: Induction of apoptosis in human MOLT4 cells assessed as viable cells at IC50 after 24 hrs by annexin V-FITC/propidium iodide staining-based flow cytometric method (reference value: 97.78%); assay type: functional
MOLT-4 [12] = assay: Induction of apoptosis in human MOLT4 cells assessed as necrotic cells at IC50 after 24 hrs by annexin V-FITC/propidium iodide staining-based flow cytometric method (reference value: 0.03%); assay type: functional

SMILES	IC50 (HeLa) [µM]	IC50 (MOLT-4 [1]) [µM]	IC50 (A549 [5]) [µM]	further results
Fc1ccccc1Nc1ncnc2c1C(c1ccccc1)c1ccc3ccccc3c1O2 (configuration not stated)	10.3	12.8	5.4	Activity (A549 [2]): 0.29%; Activity (MOLT-4 [3]): Active; Activity (A549 [4]): 2.72%; Activity (A549 [6]): 34.92%; Activity (A549 [7]): Active; Activity (A549 [8]): 62.07%
COc1ccc(OC)c(C2c3ccc4ccccc4c3Oc3ncnc(Nc4ccc(Cl)cc4)c32)c1 (configuration not stated)	15.9	7.4	14.8	–
COc1cc(C2c3ccc4ccccc4c3Oc3ncnc(Nc4ccccc4)c32)cc(OC)c1OC (configuration not stated)	20.7	9.8	18.6	–
c1ccc(CCNc2ncnc3c2C(c2ccccc2)c2ccc4ccccc4c2O3)cc1 (configuration not stated)	50.2	16.9	68.5	–
Brc1ccc(Nc2ncnc3c2C(c2ccccc2)c2ccc4ccccc4c2O3)cc1 (configuration not stated)	31.6	29.4	> 100	–
COc1ccc(CCNc2ncnc3c2C(c2ccccc2)c2ccc4ccccc4c2O3)c(OC)c1 (configuration not stated)	43.5	14.5	18.9	–
Clc1ccc(Nc2ncnc3c2C(c2ccccc2)c2ccc4ccccc4c2O3)cc1 (configuration not stated)	19.9	16.4	13.7	–
COc1cc(C2c3ccc4ccccc4c3Oc3ncnc(NCc4ccccc4)c32)cc(OC)c1OC (configuration not stated)	44.6	10.4	26.5	–
COc1cc(C2c3ccc4ccccc4c3Oc3ncnc(NCc4ccccc4Cl)c32)cc(OC)c1OC (configuration not stated)	33.2	14.5	22.2	–
COc1ccc(OC)c(C2c3ccc4ccccc4c3Oc3ncnc(Nc4ccc(Br)cc4)c32)c1 (configuration not stated)	16.7	20.4	26.8	–
c1ccc(Nc2ncnc3c2C(c2ccccc2)c2ccc4ccccc4c2O3)cc1 (configuration not stated)	6.4	6.6	12.5	–
CCc1ccc(Nc2ncnc3c2C(c2ccccc2)c2ccc4ccccc4c2O3)cc1 (configuration not stated)	14.5	17.6	17.4	–
COc1ccc(OC)c(C2c3ccc4ccccc4c3Oc3ncnc(Nc4ccc(F)cc4)c32)c1 (configuration not stated)	10.5	6.8	8.4	–
c1ccc(CNc2ncnc3c2C(c2ccccc2)c2ccc4ccccc4c2O3)cc1 (configuration not stated)	5.9	12.7	10.9	–
COc1ccc(Nc2ncnc3c2C(c2cc(OC)ccc2OC)c2ccc4ccccc4c2O3)cc1 (configuration not stated)	10.6	6.9	7.2	–
COc1ccc(Nc2ncnc3c2C(c2cc(OC)c(OC)c(OC)c2)c2ccc4ccccc4c2O3)cc1 (configuration not stated)	> 100	33.5	46.5	–
COc1ccc(Nc2ncnc3c2C(c2ccccc2)c2ccc4ccccc4c2O3)c(OC)c1 (configuration not stated)	15.9	6.5	10.9	–
Cc1ccc(Nc2ncnc3c2C(c2ccccc2)c2ccc4ccccc4c2O3)c(C)c1 (configuration not stated)	14.6	8.9	11.2	–
COc1ccc(OC)c(C2c3ccc4ccccc4c3Oc3ncnc(Nc4ccccc4F)c32)c1 (configuration not stated)	6.9	5.2	6.3	Activity (MOLT-4 [9]): 47.03%; Activity (MOLT-4 [3]): Active; Activity (MOLT-4 [10]): 43.61%; Activity (A549 [7]): Active; Activity (MOLT-4 [11]): 8.18%; Activity (MOLT-4 [12]): 1.18%
Clc1ccccc1CNc1ncnc2c1C(c1ccccc1)c1ccc3ccccc3c1O2 (configuration not stated)	15.4	11.7	9.6	–
